One block for each molecule: values may come before it.
How the values were obtained:
[1] = target: T1, Steryl-sulfatase (Homo sapiens, UniProt P08842); assay type: microsomes, Placenta, Microsome
T1 sequence (P08842 whole entry): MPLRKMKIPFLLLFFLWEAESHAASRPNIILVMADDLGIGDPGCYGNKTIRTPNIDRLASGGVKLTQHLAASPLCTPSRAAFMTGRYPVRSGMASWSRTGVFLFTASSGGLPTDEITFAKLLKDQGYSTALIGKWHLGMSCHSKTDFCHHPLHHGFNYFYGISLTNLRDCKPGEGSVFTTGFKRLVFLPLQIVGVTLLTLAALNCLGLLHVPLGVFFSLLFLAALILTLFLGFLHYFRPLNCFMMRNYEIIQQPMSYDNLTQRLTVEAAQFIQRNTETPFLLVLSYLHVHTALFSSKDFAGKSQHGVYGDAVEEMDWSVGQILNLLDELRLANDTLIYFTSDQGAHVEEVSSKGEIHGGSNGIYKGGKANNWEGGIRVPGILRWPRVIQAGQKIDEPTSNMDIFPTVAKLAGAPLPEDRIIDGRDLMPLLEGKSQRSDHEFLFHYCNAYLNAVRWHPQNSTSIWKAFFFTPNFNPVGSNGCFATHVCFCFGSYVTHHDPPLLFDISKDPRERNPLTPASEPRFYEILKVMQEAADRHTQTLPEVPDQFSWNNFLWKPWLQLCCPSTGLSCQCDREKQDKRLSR

[2] = target: T1, Steryl-sulfatase; assay type: cell-based, MCF7
[3] = tested on: DU-145; test: cells; assay type: functional; conditions: Homo sapiens
[4] = tested on: MDA-MB-231; test: cells; assay type: functional; conditions: Homo sapiens
[5] = species on record: Rattus norvegicus; test: animal or person; assay type: functional; conditions: Wistar, po, 3 h
[6] = species on record: Rattus norvegicus; test: animal or person; assay type: functional; conditions: Wistar, po, 3 h; remark: listed apart in the source
[7] = target: T1, Steryl-sulfatase; assay type: cell-based, JEG-3
[8] = target: T2, Estrogen receptor (Homo sapiens, UniProt P03372)
T2 sequence (P03372 whole entry): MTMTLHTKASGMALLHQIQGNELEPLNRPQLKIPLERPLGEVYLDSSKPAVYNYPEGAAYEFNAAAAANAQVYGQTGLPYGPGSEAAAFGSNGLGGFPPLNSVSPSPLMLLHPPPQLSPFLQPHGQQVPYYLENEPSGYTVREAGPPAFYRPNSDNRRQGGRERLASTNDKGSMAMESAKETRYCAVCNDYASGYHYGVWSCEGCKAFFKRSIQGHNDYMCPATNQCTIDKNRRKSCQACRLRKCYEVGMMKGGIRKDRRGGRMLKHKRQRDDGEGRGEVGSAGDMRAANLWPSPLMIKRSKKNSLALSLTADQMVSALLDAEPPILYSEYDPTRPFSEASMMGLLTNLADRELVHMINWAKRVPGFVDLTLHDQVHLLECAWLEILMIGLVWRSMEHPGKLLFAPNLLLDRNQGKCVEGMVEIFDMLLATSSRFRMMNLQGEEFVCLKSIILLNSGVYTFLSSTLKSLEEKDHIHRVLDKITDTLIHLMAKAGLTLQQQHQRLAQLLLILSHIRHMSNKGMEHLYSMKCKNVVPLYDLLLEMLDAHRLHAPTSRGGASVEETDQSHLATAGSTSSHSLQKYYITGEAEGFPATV

[9] = target: T1, Steryl-sulfatase; design: species or system Placenta, Microsome
[10] = tested on: MCF7; test: cells; assay type: functional; conditions: Homo sapiens
[11] = tested on: MCF7; test: cells; assay type: functional; conditions: Homo sapiens; remark: listed apart in the source
[12] = tested on: LNCaP; test: cells; assay type: functional, cell-based; conditions: Homo sapiens
[13] = cells; assay type: functional, cell-based; conditions: Homo sapiens, PC-3
[14] = tested on: A2780cisR; test: cells; assay type: functional, cell-based; conditions: Homo sapiens
[15] = cells; assay type: functional, cell-based; conditions: Homo sapiens, A2780 ADR
[16] = tested on: MCF7; test: cells; assay type: functional, cell-based; conditions: Homo sapiens
[17] = tested on: MDA-MB-231; test: cells; assay type: functional, cell-based; conditions: Homo sapiens
[18] = tested on: MCF7; test: animal or person; assay type: functional, Homo sapiens; conditions: Mus musculus, MCF7, po
[19] = species on record: Homo sapiens; assay type: functional
[20] = species on record: Homo sapiens; assay type: functional; remark: listed apart in the source

Structure (SMILES): C[C@]12CC[C@@H]3c4ccc(OS(N)(=O)=O)cc4CC[C@H]3[C@@H]1CC(=O)N(Cc1ccccc1)C2=O
- IC50 [1]: 3 nM

Structure (SMILES): C=CCN1C(=O)C[C@H]2[C@@H]3CCc4cc(OS(N)(=O)=O)ccc4[C@H]3CC[C@]2(C)C1=O
- IC50 [1]: 75 nM

Structure (SMILES): CC/C(=C(/CC)c1ccc(OS(N)(=O)=O)cc1)c1ccc(OS(N)(=O)=O)cc1
- IC50 [2]: 10 nM

Structure (SMILES): COc1cc2c(cc1OS(N)(=O)=O)CCN(Cc1cc(Br)c(OC)c(OC)c1)C2
- GI50 [3]: 30 nM
- GI50 [4]: 30 nM

Structure (SMILES): N#Cc1ccc(N(CCSc2ccc(OS(N)(=O)=O)c(Cl)c2)n2cnnc2)cc1
- inhibition in vivo at 10 mg/kg [5]: 92%
- inhibition in vivo at 10 mg/kg [6]: 98%
- IC50 [7]: 1200 nM

Structure (SMILES): N#Cc1ccc(N(Cc2ccc3cc(OS(N)(=O)=O)ccc3c2)n2cnnc2)cc1
- IC50 [7]: 367 nM

Structure (SMILES): N#Cc1ccc(N(Cc2ccc3c(Cl)c(OS(N)(=O)=O)ccc3c2)n2cnnc2)cc1
- inhibition in vivo at 10 mg/kg [5]: 93%
- inhibition in vivo at 10 mg/kg [6]: 93%
- IC50 [7]: 26 nM

Structure (SMILES): N#Cc1ccc(N(Cc2ccc3c(Br)c(OS(N)(=O)=O)ccc3c2)n2cnnc2)cc1
- IC50 [7]: 205 nM

Structure (SMILES): Cn1nnc2ccc(C(c3ccc(OS(N)(=O)=O)cc3)n3cncn3)cc21 (centres undefined)
- IC50 [7]: > 10000 nM

Structure (SMILES): CCN(Cc1ccc(C(=O)N2CCc3ccc(O)cc3C2)cc1)Cc1ccccn1
- IC50 [8]: 24600 nM

Structure (SMILES): COc1cc2c(cc1OS(N)(=O)=O)CC[C@@H]1[C@@H]2CC[C@]2(C)C(=O)CC[C@@H]12
- IC50 [9]: 30 nM
- GI50 [10]: 300 nM
- inhibition at 1 µM [11]: 52%
- IC50 [12]: 100 nM
- IC50 [13]: 100 nM
- IC50 [14]: 100 nM
- IC50 [15]: 100 nM

Structure (SMILES): N#Cc1ccc(N(Cc2ccc(OS(N)(=O)=O)cc2)n2cnnc2)cc1
- inhibition in vivo at 10 mg/kg [6]: 39%

Structure (SMILES): C[C@]12CC[C@@H]3c4ccc(OS(N)(=O)=O)cc4CC[C@H]3[C@@H]1CC[C@@H]2O [E2MATE]
- inhibition (INH) [19]: 91%
- inhibition (INH) [20]: 96%

More lines, main results first:

- GI50 [3]: 41 nM
- GI50 [4]: 52 nM
Structure (SMILES): CCc1cc2c(cc1OS(N)(=O)=O)CCN(Cc1cc(OC)c(OC)c(OC)c1)C2

- GI50 [3]: 286 nM
- GI50 [4]: 281 nM
Structure (SMILES): CCC1Cc2cc(OS(N)(=O)=O)c(OC)cc2CN1Cc1cccc(OC)c1 (centres undefined)

- GI50 [3]: 299 nM
- GI50 [4]: 269 nM
Structure (SMILES): COc1ccc(F)c(CN2Cc3cc(OC)c(OS(N)(=O)=O)cc3CC2C)c1 (centres undefined)

- GI50 [3]: 189 nM
- GI50 [4]: 160 nM
Structure (SMILES): COc1ccc(OC)c(CN2Cc3cc(OC)c(OS(N)(=O)=O)cc3CC2C)c1 (centres undefined)

- GI50 [3]: 360 nM
- GI50 [4]: 300 nM
Structure (SMILES): COc1cc2c(cc1OS(N)(=O)=O)CCN(Cc1cc(OC)c(OC)c(OC)c1)C2C (centres undefined)

- GI50 [3]: 40 nM
- GI50 [4]: 40 nM
Structure (SMILES): COc1cc2c(cc1OS(N)(=O)=O)CCN(Cc1cc(Cl)c(OC)c(OC)c1)C2

- GI50 [3]: 20 nM
- GI50 [4]: 30 nM
Structure (SMILES): CCc1cc2c(cc1OS(N)(=O)=O)CCN(Cc1cc(Br)c(OC)c(OC)c1)C2

- GI50 [3]: 100 nM
- GI50 [4]: 70 nM
Structure (SMILES): CCOc1c(OC)cc(CN2CCc3cc(OS(N)(=O)=O)c(OC)cc3C2)cc1OC

- IC50 [16]: 70 nM
- IC50 [17]: 80 nM
Structure (SMILES): COc1cc2c(cc1OS(N)(=O)=O)CC[C@@H]1[C@@H]2CC[C@]2(C)[C@@H](CC#N)CC[C@@H]12
- inhibition in vivo at 20 mg/kg [18]: 22%

Source: ChEMBL document CHEMBL3621110, “Discovery and Development of the Aryl O-Sulfamate Pharmacophore for Oncology and Women's Health” (J Med Chem, 2015)
